Experimental data: patent publication US20090131309A1, “ICA512 COUPLES INSULIN SECRETION AND GENE EXPRESSION IN BETA-CELLS” (Technische Universität Dresden Medizinizche Fakultät Carl …, priority 2004, published 2009)

Legend:
ICA512-TMF [1] = test: Stimulus-induced cleavage of ICA512-TMF in INS-1 cells (western blot); format: cell-based, rat
Method: Cell extracts and western blotting. Wild type and transfected INS-1 cells and rat pancreatic islets (350-450) were pre-incubated for 60 minutes in resting buffer containing 0 mM glucose and 5 mM KCl and then incubated for various times in fresh resting or stimulating buffer including 25 mM glucose and 55 mM KCl, as previously described (7). […] Next, the cells were washed with ice cold PBS, and extracted in lysis buffer (10 mM Tris-HCl at pH 8.0, 140 mM NaCl, 1% Triton X-100, 1 mM EDTA, 1 mM PMSF, and 1% protease inhibitor cocktail (Sigma, St. Louis, Mo.) at 4° C. Cytosolic and nuclear extracts were prepared using the NE-PER Nuclear and Cytoplasmic Extraction Reagents (Pierce, Rockford, Ill.) in accordance with the manufacturer's instructions. Protein concentration was measured using the Bio-Rad Protein Assay Reagent (Bio-Rad, Hercules, Calif.). Equivalent amount of protein was separated by 8-10% SDS-PAGE, except for nuclear extracts, in which case half of the protein were loaded compared to the corresponding cytosolic extracts. After protein transferring, nitrocellulose filters were incubated with the following antibodies: mouse monoclonal anti-ICA512 (6), anti-μ-calpain (Chemicon, Temecula, Calif.), anti-γ-tubulin and anti-HA (Sigma), anti-GFP (Clontech); rabbit polyclonals anti-Glut2 (Alpha Diagnostics International, St Antonio, Tex.), anti-CPE (Chemicon), anti-GFP (Molecular Probes, Eugene, Oreg.) and anti-HA (kind gift of Christoph Thiele). Chemiluminescence was developed using the Supersignal West Pico Substrate (Pierce) as substrate and detected with a LAS 3000 Bioimaging System (Fuji, Tokyo, Japan). Quantitation of protein signals was performed with the Image Gauge v3.45 software (Fuji).

ICA512-TMF [2] = test: Stimulus-induced decrease of ICA512-TMF in rat pancreatic islets (western blot); format: cell-based; settings: purified rat pancreatic islets; with or without 60 μM calpeptin
Method: Islet isolation and cell culture. Pancreatic islets were isolated from female Wistar rats by collagenase digestion, purified by density gradient centrifugation, and cultured (400/60 mm culture dish) as described previously (26). INS-1 cells were grown as described (27). Cell extracts and western blotting. Wild type and transfected INS-1 cells and rat pancreatic islets (350-450) were pre-incubated for 60 minutes in resting buffer containing 0 mM glucose and 5 mM KCl and then incubated for various times in fresh resting or stimulating buffer including 25 mM glucose and 55 mM KCl, as previously described (7). […] Next, the cells were washed with ice cold PBS, and extracted in lysis buffer (10 mM Tris-HCl at pH 8.0, 140 mM NaCl, 1% Triton X-100, 1 mM EDTA, 1 mM PMSF, and 1% protease inhibitor cocktail (Sigma, St. Louis, Mo.) at 4° C. Cytosolic and nuclear extracts were prepared using the NE-PER Nuclear and Cytoplasmic Extraction Reagents (Pierce, Rockford, Ill.) in accordance with the manufacturer's instructions. Protein concentration was measured using the Bio-Rad Protein Assay Reagent (Bio-Rad, Hercules, Calif.). Equivalent amount of protein was separated by 8-10% SDS-PAGE, except for nuclear extracts, in which case half of the protein were loaded compared to the corresponding cytosolic extracts. […] Quantitation of protein signals was performed with the Image Gauge v3.45 software (Fuji).

Insulin mRNA = Insulin mRNA levels by real-time PCR in INS-1 cells; format: cell-based, rat; settings: 40 μM calpeptin; 2 hrs after 6 hrs stimulation and later; vs cells stimulated without calpeptin
Method: Time-course stimulation of INS-1 cells. INS-1 ceils were incubated for 1 hr. in resting buffer (2.8 mM glucose and 5 mM KCl), then for 6 hrs. in resting or stimulating buffer, with or without 40 μM calpeptin, and then again in resting buffer for up to 24 hrs. Total RNA for real-time PCR was collected at time 0, 2 and 6 hrs. during stimulation and at 2, 6, 12 and 24 hrs. during the following resting period.
Real-time PCR. Total RNA from INS-1 cells was isolated with Trizol (Invitrogen, Karlsruhe, Germany) according to the manufacturer's protocol. 1 μg of total RNA was used for the reverse transcriptase reaction, with 2 μM specific antisense primers for […] and insulin, as described (31). mRNA expression was measured by quantitative real-time PCR using the Brilliant SYBR Green QPCR (Stratagene, La Jolla, Calif.) with an Mx4000 Multiplex Quantitative Real Time PCR System (Stratagene).

pro-ICA512 = test: Immunoblot for pro-ICA512 and ICA512-TMF in INS-1 cells; format: cell-based, rat; settings: 60 μM Calpeptin
Method: Culture of INS-1 cells. INS-1 cells were grown as described^27. In some instances cells were pre-incubated for 1 hour in resting buffer (0 mM glucose, 5 mM KCl) and then for 2 or 6 hours in resting or stimulating (25 mM glucose, 55 mM KCl) buffers as described^7. Calpeptin (Calbiochem) was added in the last 15 minutes of the pre-incubation, and then for the entire following period before cells were harvested. Cells were stimulated with 20 nM human growth hormone (hGH) for 20 minutes following 18 hours incubation in low serum medium (LSM) containing RPMI-1640, 11 mM glucose, 0.5% FBS 25 mM HEPES, 1% penicillin-streptomycin and 0.05 mM β-mercaptoethanol. After washing, cells were either harvested or incubated in LSM for 6 additional hours. For immunoprecipitation cells were collected 1 hour after stimulation with hGH.
Cell extracts and western blotting. INS-1 cells and pancreatic islets were harvested at 4° C. in RIPA buffer [50 mM Tris-HCl at pH 8.0, 150 mM NaCl, 1% NP-40, 0.1% SDS, 0.5% sodium deoxycholate, and 1× protease inhibitor cocktail (Sigma)] to obtain total extracts. Insoluble material was removed by centrifugation. Cytosolic and nuclear extracts were prepared using the NE-PER Nuclear and Cytoplasmic Extraction Reagents (Pierce). Proteins were separated by 8-10% SDS-PAGE and immunoblotted with the following antibodies: mouse monoclonals anti-ICA512^7, anti-STAT5 (Santa Cruz), anti-γ-tubulin and anti-HA (Sigma); rabbit anti-PY-STAT5 and anti-STAT3 (Cell Signaling); affinity purified goat anti-GFP IgGs. Chemiluminescence was developed using the Supersignal West Pico or Femto kits (Pierce) and detected with a LAS 3000 Bioimaging System (Fuji). Protein signals were quantified with the Image Gauge v3.45 software (Fuji). Half the amount of nuclear extract proteins were immunoblotted relative to total and cytosolic extract proteins.

## CCCC[C@@H](C=O)NC(=O)[C@H](CC(C)C)NC(=O)OCc1ccccc1 [calpeptin]
ICA512-TMF [1]; INS-1 cells, stimulating buffer (25 mM glucose, 55 mM KCl) 105 min, western blot
  Ca2+-dependent cleavage of ICA512-TMF cytoplasmic domain upon stimulation: prevented in a dose-dependent manner
ICA512-TMF [1]; cytosolic extracts of ICA512-GFP INS-1 cells, 60 μM calpeptin
  stimulation induced proteolysis of ICA512-TMF-GFP: calpeptin-sensitive proteolysis of ICA512-TMF-GFP
ICA512-TMF [1]; stimulated INS-1 cells expressing dynamin 1 (K44A)-GFP
  increased proteolysis of ICA512-TMF in dynamin 1 (K44A)-GFP cells: inhibited by calpeptin in a dose-dependent fashion
ICA512-TMF [2]
  decrease of ICA512-TMF upon stimulation: calpeptin-sensitive decrease of ICA512-TMF
Insulin mRNA
  insulin mRNA reduction: ~40%
pro-ICA512; cells stimulated for 2 hours
  rapid induction of pro-ICA512: did not prevent the rapid induction of pro-ICA512
pro-ICA512; cells stimulated for 6 hours
  greater induction of pro-ICA512 and decrease of ICA512-TMF: partially inhibited
